Measurements reported in the supplement of paper PMC10307832.

Experiments:
Test in all cases: relative viability (nuclei count vs DMSO), 5 days (fraction); higher = more cells survive
Metformin + Lapatinib = compound: CN(C)C(=N)NC(=N)N [Metformin] + CS(=O)(=O)CCNCc1ccc(-c2ccc3ncnc(Nc4ccc(OCc5cccc(F)c5)c(Cl)c4)c3c2)o1 [Lapatinib] (partner 2 µM)
Summary of the method: (§1)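 Values are medians from duplicate plates. Each reflects relative viability, defined as the nuclei count of treated wells over that of vehicle wells. Lung cancer cell lines in 1536-well plates were pin-tool dosed one day after seeding with one drug alone or with a fixed anchor-drug dose plus five library-drug doses (not always all listed) in √10 steps, then fixed, stained and imaged at 4× after 5 days.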

Apatinib + Palbociclib = compound: N#CC1(c2ccc(NC(=O)c3cccnc3NCc3ccncc3)cc2)CCCC1 [Apatinib] + CC(=O)c1c(C)c2cnc(Nc3ccc(N4CCNCC4)cn3)nc2n(C2CCCC2)c1=O [Palbociclib] (partner 0.5 µM)
Summary of the method: as §1

Apatinib + Luminespib = compound: N#CC1(c2ccc(NC(=O)c3cccnc3NCc3ccncc3)cc2)CCCC1 [Apatinib] + CCNC(=O)c1noc(-c2cc(C(C)C)c(O)cc2O)c1-c1ccc(CN2CCOCC2)cc1 [Luminespib] (partner 0.01 µM)
Summary of the method: as §1

Apatinib + Phenformin = compound: N#CC1(c2ccc(NC(=O)c3cccnc3NCc3ccncc3)cc2)CCCC1 [Apatinib] + N=C(N)NC(=N)NCCc1ccccc1 [Phenformin] (partner 250 µM)
Summary of the method: as §1

Cell Line | relative viability (Metformin + Lapatinib; first compound 10 µM) | relative viability (Metformin + Lapatinib; first compound 31.62 µM) | relative viability (Metformin + Lapatinib; first compound 100 µM) | relative viability (Metformin + Lapatinib; first compound 316.23 µM) | relative viability (Metformin + Lapatinib; first compound 1000 µM) | relative viability (Apatinib + Palbociclib; first compound 0.08 µM) | relative viability (Apatinib + Palbociclib; first compound 0.253 µM) | relative viability (Apatinib + Palbociclib; first compound 0.8 µM) | relative viability (Apatinib + Palbociclib; first compound 2.53 µM) | relative viability (Apatinib + Palbociclib; first compound 8 µM) | relative viability (Apatinib + Luminespib; first compound 0.08 µM) | relative viability (Apatinib + Luminespib; first compound 0.253 µM) | relative viability (Apatinib + Luminespib; first compound 0.8 µM) | relative viability (Apatinib + Luminespib; first compound 2.53 µM) | relative viability (Apatinib + Luminespib; first compound 8 µM) | relative viability (Apatinib + Phenformin; first compound 0.08 µM) | relative viability (Apatinib + Phenformin; first compound 0.253 µM) | relative viability (Apatinib + Phenformin; first compound 0.8 µM) | relative viability (Apatinib + Phenformin; first compound 2.53 µM) | relative viability (Apatinib + Phenformin; first compound 8 µM)
SK-MES-1 | 0.452 | 0.488 | 0.516 | 0.463 | 0.485 | 0.335 | 0.323 | 0.282 | 0.292 | 0.278 | 0.732 | 0.796 | 0.701 | 0.727 | 0.795 | 0.699 | 0.615 | 0.616 | 0.574 | 0.451
NCI-H2170 | 0.273 | 0.247 | 0.302 | 0.288 | 0.288 | 0.387 | 0.382 | 0.362 | 0.379 | 0.298 | 0.841 | 0.649 | 0.609 | 0.676 | 0.621 | 0.462 | 0.404 | 0.373 | 0.355 | 0.335
NCI-H1648 | – | – | – | – | – | 0.273 | 0.218 | 0.328 | 0.273 | 0.274 | – | – | – | – | – | – | – | – | – | –
NCI-H1915 | – | 1.07 | 0.973 | 0.976 | 1 | 0.549 | 0.524 | 0.555 | 0.5 | 0.475 | 0.891 | 0.852 | 0.737 | 0.692 | 0.544 | 0.377 | 0.353 | 0.334 | 0.354 | 0.326
HCC-366 | 1.05 | 1.05 | 1 | 1.07 | 1.01 | 0.484 | 0.378 | 0.373 | 0.334 | 0.306 | – | – | – | – | – | 0.635 | 0.61 | 0.578 | 0.525 | 0.456
HOP-62 | 0.725 | 1.05 | 0.891 | 0.777 | 1.05 | 0.441 | 0.366 | 0.377 | 0.361 | 0.219 | 1.01 | 0.838 | 0.77 | 0.714 | 0.692 | 0.646 | 0.646 | 0.638 | 0.625 | 0.577
RERF-LC-KJ | 0.685 | 0.777 | 0.777 | 0.775 | 0.915 | 1.11 | 1.1 | 0.467 | 1.05 | 0.984 | 1.11 | 1.35 | 1.07 | 1.22 | 1.02 | 0.452 | 0.403 | 0.401 | 0.427 | 0.454
NCI-H2347 | 0.582 | 0.881 | 1.04 | 0.832 | 1 | 0.469 | 0.407 | 0.452 | 0.384 | 0.392 | 0.501 | 0.415 | 0.404 | 0.416 | 0.789 | 0.476 | 0.307 | 0.443 | 0.206 | 0.465
PC-14 | 0.432 | 0.438 | 0.37 | 0.36 | 0.372 | 0.555 | 0.619 | 0.493 | 0.611 | 0.33 | 0.121 | 0.15 | – | 0.167 | 0.144 | 0.445 | 0.793 | – | 0.476 | 0.446
